Patent publication US5242938A, “Derivatives of virginiamycin M1” (Merck & Co., Inc., priority 1992, dated 1993)
pIC50: −log10 of the molar value. ≈ marks a conversion by molar mass, not a printed value. Like-named read-outs stand apart in the source and are kept apart here.

Experiments:
[1] = biological target: T1, CCK-B (guinea pig cortex) (Cavia porcellus, UniProt H0VZC5); assay: [125I]BHCCK-8 radioligand binding, guinea pig cortical preparation; conditions: read-out: CCK binding inhibition - IC50, [125I]BHCCK
T1 construct: guinea pig cortical preparations; from tissue; host or cells: guinea pig brain cortex membranes
T1 sequence (H0VZC5 1-426): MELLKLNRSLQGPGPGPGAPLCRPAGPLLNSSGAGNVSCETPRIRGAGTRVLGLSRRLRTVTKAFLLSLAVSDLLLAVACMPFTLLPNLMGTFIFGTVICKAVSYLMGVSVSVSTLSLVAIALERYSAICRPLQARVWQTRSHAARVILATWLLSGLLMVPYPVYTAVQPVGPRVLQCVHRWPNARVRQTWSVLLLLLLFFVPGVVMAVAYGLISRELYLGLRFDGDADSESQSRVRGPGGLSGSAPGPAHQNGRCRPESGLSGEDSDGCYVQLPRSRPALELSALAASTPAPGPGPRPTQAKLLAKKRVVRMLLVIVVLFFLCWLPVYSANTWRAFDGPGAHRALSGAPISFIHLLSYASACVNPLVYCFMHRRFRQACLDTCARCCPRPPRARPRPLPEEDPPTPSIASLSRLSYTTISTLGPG
Experimental: (§1) The resulting supernatant was re-spun at 20,000×g for 20 minutes. […] Incubations were for 40 minutes at 4° C. and were terminated by filtration and washing with ice cold 100 mM saline. […] Incubations were for 30 minutes at room temperature and were terminated by filtration over GF/C filters and washing with 100 mM NaCl.

[2] = biological target: T1, CCK-B (guinea pig cortex); assay: [3H]L-365,260 CCK-B selective antagonist ligand binding, brain membranes; conditions: for pIC50: read-out: CCK binding inhibition - IC50, [3H]L-365,260
Experimental: as §1

[3] = tested on: Streptococcus faecium (Mb 2820); assay: Agar diffusion disc assay, Str 2820; assay type: cell-based; conditions: Enterococcus faecium, 18 h
Experimental: (§2) Cultures employed in evaluating antimicrobial activity included plant pathogens, human and animal opportunistic pathogens and selected laboratory strains having specific-antibiotic sensitivities or chromosomal or R-plasmid-mediated resistances. […] The agar diffusion MIC's were determined using the method described by Barry in Anitbiotics in Laboratory Medicine, 2nd Ed., Ed. V. Lorian, pp. 1-63, William & Wilkins, Baltimore, 1986. Each test compound was dissolved in methanol to a concentration of 1 mg/ml. Serial dilutions of these compounds were also made to determine an agar diffusion MIC. 20 μl of each dilution was pipetted on to 6 mm paper discs, air dried and placed onto the surface of an agar plate seeded with the appropriate bacteria (~10^6 cfu). Seeded agar plates were incubated overnight (~18 hours) at 25° C. Zone sizes were measured to the nearest mm. Each compound was tested in triplicate and the results shown represent the mean.

[4] = tested on: Pseudomonas stutzeri (Mb 1231, ATCC 11607); assay: Agar diffusion disc assay, Pseu 1231; assay type: cell-based; conditions: Stutzerimonas stutzeri, ATCC11607, 18 h
Experimental: as §2

[5] = tested on: Corynebacterium pseudodiphtheriticum (Mb 261, ATCC 9742); assay: Agar diffusion disc assay, Cory 261; assay type: cell-based; conditions: Corynebacterium pseudodiphtheriticum, ATCC9742, 18 h
Experimental: as §2

CCK-A (rat pancreas) [6] = biological target: T2, CCK-A (rat pancreas) (Rattus norvegicus, UniProt P30551); assay: [125I]BHCCK-8 radioligand binding, rat pancreatic preparation; conditions: read-out: CCK binding inhibition - IC50, [125I]BHCCK
T2 construct: from tissue; host or cells: rat pancreas
T2 sequence (P30551 1-444): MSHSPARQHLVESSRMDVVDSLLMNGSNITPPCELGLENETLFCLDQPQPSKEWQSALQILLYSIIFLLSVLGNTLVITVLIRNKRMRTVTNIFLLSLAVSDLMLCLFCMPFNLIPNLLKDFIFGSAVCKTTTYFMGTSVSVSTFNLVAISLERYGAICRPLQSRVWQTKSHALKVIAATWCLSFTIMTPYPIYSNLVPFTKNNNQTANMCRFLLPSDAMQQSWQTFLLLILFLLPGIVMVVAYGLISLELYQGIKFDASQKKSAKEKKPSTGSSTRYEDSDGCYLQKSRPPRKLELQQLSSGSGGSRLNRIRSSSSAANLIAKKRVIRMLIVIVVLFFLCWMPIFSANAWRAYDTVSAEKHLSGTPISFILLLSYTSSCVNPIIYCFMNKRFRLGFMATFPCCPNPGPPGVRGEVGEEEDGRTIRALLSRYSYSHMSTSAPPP
Experimental: as §1

[7] = tested on: Staphylococcus aureus (Mb 108, ATCC 6538P); assay: Agar diffusion disc assay, Sta 108; assay type: cell-based; conditions: Staphylococcus aureus, ATCC6538P, 18 h
Experimental: as §2

Bacillus sp. (Mb 633) = assay: Agar diffusion disc assay, Baci 633; assay type: cell-based; conditions: Bacillus, 18 h, @ 20 g/disc; read-out: Inhibition zone diameter, Baci 633
Experimental: as §2

[8] = tested on: Salmonella gallinarum (Mb 1287); assay: Agar diffusion disc assay, Salm 1287; assay type: cell-based; conditions: Salmonella enterica, GALLINARUM, 18 h, read-out: Inhibition zone diameter, Salm 1287
Experimental: as §2

[9] = tested on: Staphylococcus aureus (Mb 2983); assay: Agar diffusion disc assay, Sta 2983; assay type: cell-based; conditions: Staphylococcus aureus, 18 h
Experimental: as §2

[10] = tested on: Streptococcus agalactiae (Mb 2875); assay: Agar diffusion disc assay, Str 2875; assay type: cell-based; conditions: Streptococcus agalactiae, 18 h
Experimental: as §2

[11] = tested on: Escherichia coli (Mb 1418); assay: Agar diffusion disc assay, Coli 1418; assay type: cell-based; conditions: Escherichia coli, 18 h
Experimental: as §2

[12] = tested on: Micrococcus luteus (Mb 1101, ATCC 9341); assay: Agar diffusion disc assay, Micr 1101; assay type: cell-based
Experimental: as §2

[13] = tested on: Bacillus subtilis (Mb 964, ATCC 6633); assay: Agar diffusion disc assay, Subt 964; assay type: cell-based; conditions: Bacillus subtilis, ATCC6633, 18 h, read-out: Inhibition zone diameter, Subt 964
Experimental: as §2

CCK-A (rat pancreas) [14] = biological target: T2, CCK-A (rat pancreas); assay: [3H]L-364,718 CCK-A selective antagonist ligand binding, pancreas; conditions: read-out: CCK binding inhibition - IC50, [3H]L-364,718
Experimental: as §1

[15] = tested on: En terobacter aergenes (Mb 835); assay: Agar diffusion disc assay, Ent 835; assay type: cell-based; conditions: 18 h, read-out: Inhibition zone diameter, Ent 835
Experimental: as §2

[16] = @ 20 g/disc, read-out: Inhibition zone diameter, Str 2820
[17] = @ 20 g/disc, read-out: Inhibition zone diameter, Pseu 1231
[18] = @ 20 g/disc, read-out: Inhibition zone diameter, Cory 261
[19] = @ 20 g/disc, read-out: Inhibition zone diameter, Sta 108
[20] = @ 20 g/disc, read-out: Inhibition zone diameter, Sta 2983
[21] = @ 20 g/disc, read-out: Inhibition zone diameter, Str 2875
[22] = @ 20 g/disc, read-out: Inhibition zone diameter, Coli 1418
[23] = Micrococcus luteus, ATCC9341, 18 h; @ 20 g/disc; read-out: Inhibition zone diameter, Micr 1101
[24] = Micrococcus luteus, ATCC9341, 18 h; read-out: Agar Diffusion MIC versus Micrococcus luteus
[25] = Micrococcus luteus, ATCC9341; 1.25 μg/disc; 25° C., ~18 hours; read-out: Mean of triplicate zone size versus Micrococcus luteus
[26] = Micrococcus luteus, ATCC9341; 2.50 μg/disc; 25° C., ~18 hours; read-out: Mean of triplicate zone size versus Micrococcus luteus
[27] = Micrococcus luteus, ATCC9341; 5.00 μg/disc; 25° C., ~18 hours; read-out: Mean of triplicate zone size versus Micrococcus luteus
[28] = Micrococcus luteus, ATCC9341; 10.0 μg/disc; 25° C., ~18 hours; read-out: Mean of triplicate zone size versus Micrococcus luteus
[29] = Micrococcus luteus, ATCC9341; 20.0 μg/disc; 25° C., ~18 hours; read-out: Mean of triplicate zone size versus Micrococcus luteus

Row | SMILES | pIC50 [1] | A.R. = agonist ratio = IC50([3H]L365,260)/IC50([125I]CCK) [2] | pIC50 [2] | pIC50 (CCK-A (rat pancreas) [6]) | zone of inhibition at 20 µg/disc (Bacillus sp. (Mb 633)) [mm] | pIC50 (CCK-A (rat pancreas) [14]) | zone of inhibition at 20 µg/disc [3, 16] [mm] | zone of inhibition at 20 µg/disc [4, 17] [mm] | zone of inhibition at 20 µg/disc [5, 18] [mm] | zone of inhibition at 20 µg/disc [7, 19] [mm] | zone of inhibition at 20 µg/disc ([8]; @ 20 g/disc) [mm] | zone of inhibition at 20 µg/disc [9, 20] [mm] | zone of inhibition at 20 µg/disc [10, 21] [mm] | zone of inhibition at 20 µg/disc [11, 22] [mm] | zone of inhibition at 20 µg/disc [12, 23] [mm] | MIC [12, 24] [µM] | zone of inhibition at 1.25 µg/disc [12, 25] [mm] | zone of inhibition at 2.5 µg/disc [12, 26] [mm] | zone of inhibition at 5 µg/disc [12, 27] [mm] | zone of inhibition at 10 µg/disc [12, 28] [mm] | also measured
1 | CC1=C\[C@@H](OC(=O)Cc2ccccc2)CC(=O)Cc2nc(co2)C(=O)N2CCC=C2C(=O)O[C@H](C(C)C)[C@H](C)/C=C/C(=O)NC\C=C\1 [Example 5] | 6.22 | ~ 10 | < 5.52 | < 5.52 | 0 | < 5.52 | – | – | – | – | – | – | – | – | – | – | – | – | – | – | percentage in parentheses beside >3.0, [3H]L-365,260 (inhibition at top concentration, not defined) ([2]; beside IC50 >3.0): 40%; zone of inhibition at 20 µg/disc ([3]; read-out: Inhibition zone diameter, Str 2820, @ 20 g/disc): 0 mm; zone of inhibition at 20 µg/disc ([4]; read-out: Inhibition zone diameter, Pseu 1231, @ 20 g/disc): 0 mm; zone of inhibition at 20 µg/disc ([5]; read-out: Inhibition zone diameter, Cory 261, @ 20 g/disc): 0 mm; zone of inhibition at 20 µg/disc ([7]; read-out: Inhibition zone diameter, Sta 108, @ 20 g/disc): 0 mm; zone of inhibition at 20 µg/disc [8]: 0 mm; zone of inhibition at 20 µg/disc ([9]; read-out: Inhibition zone diameter, Sta 2983, @ 20 g/disc): 0 mm; zone of inhibition at 20 µg/disc ([10]; read-out: Inhibition zone diameter, Str 2875, @ 20 g/disc): 0 mm; zone of inhibition at 20 µg/disc ([11]; read-out: Inhibition zone diameter, Coli 1418, @ 20 g/disc): 0 mm; MIC ([12]; Micrococcus luteus, ATCC9341, 18 h, read-out: Agar Diffusion MIC versus Micrococcus luteus): 0.41 µM (≈ 0.264 µg/mL); zone of inhibition at 20 µg/disc ([12]; Micrococcus luteus, ATCC9341, 18 h, read-out: Inhibition zone diameter, Micr 1101, @ 20 g/disc): 12 mm; zone of inhibition at 5 µg/disc ([12]; Micrococcus luteus, ATCC9341, 18 h, read-out: Mean of triplicate zone size versus Micrococcus luteus, 5.00 μg/disc; 25° C., ~18 hours): 10 mm; zone of inhibition at 20 µg/disc ([12]; Micrococcus luteus, ATCC9341, 18 h, read-out: Mean of triplicate zone size versus Micrococcus luteus, 20.0 μg/disc; 25° C., ~18 hours): 13 mm; zone of inhibition at 40 µg/disc ([12]; Micrococcus luteus, ATCC9341, 18 h, read-out: Mean of triplicate zone size versus Micrococcus luteus, 40.0 μg/disc; 25° C., ~18 hours): 14 mm; zone of inhibition at 80 µg/disc ([12]; Micrococcus luteus, ATCC9341, 18 h, read-out: Mean of triplicate zone size versus Micrococcus luteus, 80.0 μg/disc; 25° C., ~18 hours): 14 mm; zone of inhibition at 20 µg/disc [13]: 0 mm; zone of inhibition at 20 µg/disc [15]: 0 mm
2 | CCCCC(=O)O[C@@H]1/C=C(C)/C=C/CNC(=O)/C=C/[C@@H](C)[C@@H](C(C)C)OC(=O)C2=CCCN2C(=O)c2coc(n2)CC(=O)C1 [Example 4] | 6.30 | 2 | 5.92 | < 5.52 | 0 | < 5.52 | 0 | 0 | 0 | 0 | 0 | 0 | 0 | 0 | 25 | 0.54 (≈ 0.329 µg/mL) | 12 | 16 | 19 | 21 | zone of inhibition at 20 µg/disc [12, 29]: 22 mm; zone of inhibition at 20 µg/disc ([13]; @ 20 g/disc): 0 mm; zone of inhibition at 20 µg/disc ([15]; @ 20 g/disc): 0 mm
3 | CC1=C\[C@@H](OC(=O)Nc2ccccc2[N+](=O)[O-])CC(=O)Cc2nc(co2)C(=O)N2CCC=C2C(=O)O[C@H](C(C)C)[C@H](C)/C=C/C(=O)NC\C=C\1 [Example 8] | 6.52 | 10 | 5.51 | < 5.52 | 0 | < 5.52 | 0 | 0 | 9 | 7 | 0 | 0 | 0 | 0 | 16 | 0.019 (≈ 0.0131 µg/mL) | 12 | 15 | 15 | 16 | zone of inhibition at 20 µg/disc [12, 29]: 16 mm; zone of inhibition at 20 µg/disc ([13]; @ 20 g/disc): 0 mm; zone of inhibition at 20 µg/disc ([15]; @ 20 g/disc): 0 mm
